According to ChEMBL document CHEMBL3880423, “Benzamide derivatives as histone deacetylase inhibitors with potent differentiation and anti-proliferation activity” (2009):
Activity calls are given as the source filed them.

Key:
Assay type in all cases: cell-based
[1] = biological target: T1, Peroxisome proliferator-activated receptor gamma (Homo sapiens) (UniProt P37231); assay: Activation of PPARG (unknown origin) expressed in human U2OS cells at 1 uM incubated for 24 hrs by luciferase reporter gene assay
T1 sequence (whole entry): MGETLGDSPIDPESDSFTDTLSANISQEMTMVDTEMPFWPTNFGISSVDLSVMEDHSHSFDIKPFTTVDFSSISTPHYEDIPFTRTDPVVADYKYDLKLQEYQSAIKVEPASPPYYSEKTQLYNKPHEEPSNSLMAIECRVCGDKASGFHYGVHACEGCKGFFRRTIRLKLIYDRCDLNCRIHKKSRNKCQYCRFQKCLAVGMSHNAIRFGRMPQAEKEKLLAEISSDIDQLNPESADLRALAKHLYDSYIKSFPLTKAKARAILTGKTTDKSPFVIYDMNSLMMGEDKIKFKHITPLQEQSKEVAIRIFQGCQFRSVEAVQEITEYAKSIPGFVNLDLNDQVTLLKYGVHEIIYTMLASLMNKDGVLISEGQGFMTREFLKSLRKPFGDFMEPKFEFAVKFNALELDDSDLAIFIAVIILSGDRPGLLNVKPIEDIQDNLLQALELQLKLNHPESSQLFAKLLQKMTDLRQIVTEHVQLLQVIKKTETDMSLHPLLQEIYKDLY

[2] = biological target: T2, Estrogen receptor (Homo sapiens) (UniProt P03372); assay: Activation of ERalpha (unknown origin) expressed in human U2OS cells at 1 uM incubated for 24 hrs by luciferase reporter gene assay
T2 sequence (whole entry): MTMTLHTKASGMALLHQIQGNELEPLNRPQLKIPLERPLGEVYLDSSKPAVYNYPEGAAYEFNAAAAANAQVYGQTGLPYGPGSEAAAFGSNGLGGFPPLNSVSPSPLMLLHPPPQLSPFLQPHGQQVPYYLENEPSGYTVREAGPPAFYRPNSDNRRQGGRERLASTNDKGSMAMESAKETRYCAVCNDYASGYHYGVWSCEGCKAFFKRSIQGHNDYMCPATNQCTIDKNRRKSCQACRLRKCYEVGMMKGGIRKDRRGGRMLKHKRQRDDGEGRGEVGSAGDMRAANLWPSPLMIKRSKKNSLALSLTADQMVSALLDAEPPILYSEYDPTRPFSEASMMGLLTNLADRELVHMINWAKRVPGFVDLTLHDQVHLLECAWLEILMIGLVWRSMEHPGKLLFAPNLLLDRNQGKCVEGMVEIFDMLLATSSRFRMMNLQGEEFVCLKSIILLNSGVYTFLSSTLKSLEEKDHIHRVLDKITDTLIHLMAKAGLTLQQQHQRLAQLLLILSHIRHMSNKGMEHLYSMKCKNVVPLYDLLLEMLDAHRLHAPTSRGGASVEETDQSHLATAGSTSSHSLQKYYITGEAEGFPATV

[3] = biological target: Estrogen receptor beta (Homo sapiens) (UniProt Q92731); assay: Activation of ERbeta (unknown origin) expressed in human U2OS cells at 1 uM in presence of 0.01 uM E2 incubated for 24 hrs by luciferase reporter gene assay
[4] = biological target: T1, Peroxisome proliferator-activated receptor gamma (Homo sapiens); assay: Activation of PPARG (unknown origin) expressed in human U2OS cells at 1 uM in presence of 10 uM rosiglitazone incubated for 24 hrs by luciferase reporter gene assay
[5] = biological target: T3, Glucocorticoid receptor (Homo sapiens) (UniProt P04150); assay: Activation of glulcocorticoid receptor (unknown origin) expressed in human U2OS cells at 1 uM incubated for 24 hrs by luciferase reporter gene assay
T3 sequence (whole entry): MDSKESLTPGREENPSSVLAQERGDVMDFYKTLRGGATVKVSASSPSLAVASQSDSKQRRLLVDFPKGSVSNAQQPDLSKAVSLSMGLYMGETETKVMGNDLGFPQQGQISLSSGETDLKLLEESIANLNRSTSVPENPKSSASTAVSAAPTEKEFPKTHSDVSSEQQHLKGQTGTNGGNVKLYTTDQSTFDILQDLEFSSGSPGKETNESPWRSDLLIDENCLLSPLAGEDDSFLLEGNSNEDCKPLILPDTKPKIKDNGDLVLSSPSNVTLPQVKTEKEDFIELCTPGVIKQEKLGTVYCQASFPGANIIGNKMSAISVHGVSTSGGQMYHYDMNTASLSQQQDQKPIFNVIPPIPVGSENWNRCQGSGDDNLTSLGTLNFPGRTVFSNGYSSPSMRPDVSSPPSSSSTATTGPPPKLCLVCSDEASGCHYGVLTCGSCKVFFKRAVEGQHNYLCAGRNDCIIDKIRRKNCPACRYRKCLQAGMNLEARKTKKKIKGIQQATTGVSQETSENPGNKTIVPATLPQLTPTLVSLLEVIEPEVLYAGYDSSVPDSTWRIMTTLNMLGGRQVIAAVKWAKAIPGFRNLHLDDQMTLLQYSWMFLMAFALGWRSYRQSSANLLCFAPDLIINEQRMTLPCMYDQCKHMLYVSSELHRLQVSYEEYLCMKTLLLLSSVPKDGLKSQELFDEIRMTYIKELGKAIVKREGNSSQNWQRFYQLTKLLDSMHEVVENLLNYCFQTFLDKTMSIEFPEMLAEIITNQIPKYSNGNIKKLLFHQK

[6] = biological target: T2, Estrogen receptor (Homo sapiens); assay: Activation of ERalpha (unknown origin) expressed in human U2OS cells at 1 uM in presence of 0.01 uM E2 incubated for 24 hrs by luciferase reporter gene assay
[7] = biological target: Estrogen receptor beta (Homo sapiens) (UniProt Q92731); assay: Activation of ERbeta (unknown origin) expressed in human U2OS cells at 1 uM incubated for 24 hrs by luciferase reporter gene assay
[8] = biological target: T3, Glucocorticoid receptor (Homo sapiens); assay: Activation of glulcocorticoid receptor (unknown origin) expressed in human U2OS cells at 1 uM in presence of 0.1 uM dexamethasone incubated for 24 hrs by luciferase reporter gene assay
[9] = biological target: T2, Estrogen receptor (Homo sapiens); assay: Activation of ERalpha (unknown origin) expressed in human U2OS cells at 0.2 uM incubated for 24 hrs by luciferase reporter gene assay
[10] = biological target: Estrogen receptor beta (Homo sapiens) (UniProt Q92731); assay: Activation of ERbeta (unknown origin) expressed in human U2OS cells at 0.2 uM in presence of 0.01 uM E2 incubated for 24 hrs by luciferase reporter gene assay
[11] = biological target: T1, Peroxisome proliferator-activated receptor gamma (Homo sapiens); assay: Activation of PPARG (unknown origin) expressed in human U2OS cells at 0.2 uM incubated for 24 hrs by luciferase reporter gene assay
[12] = biological target: T3, Glucocorticoid receptor (Homo sapiens); assay: Activation of glulcocorticoid receptor (unknown origin) expressed in human U2OS cells at 0.2 uM incubated for 24 hrs by luciferase reporter gene assay
[13] = biological target: T1, Peroxisome proliferator-activated receptor gamma (Homo sapiens); assay: Activation of PPARG (unknown origin) expressed in human U2OS cells at 0.2 uM in presence of 10 uM rosiglitazone incubated for 24 hrs by luciferase reporter gene assay
[14] = biological target: T2, Estrogen receptor (Homo sapiens); assay: Activation of ERalpha (unknown origin) expressed in human U2OS cells at 0.2 uM in presence of 0.01 uM E2 incubated for 24 hrs by luciferase reporter gene assay
[15] = biological target: T3, Glucocorticoid receptor (Homo sapiens); assay: Activation of glulcocorticoid receptor (unknown origin) expressed in human U2OS cells at 0.2 uM in presence of 0.1 uM dexamethasone incubated for 24 hrs by luciferase reporter gene assay
[16] = biological target: Estrogen receptor beta (Homo sapiens) (UniProt Q92731); assay: Activation of ERbeta (unknown origin) expressed in human U2OS cells at 0.2 uM incubated for 24 hrs by luciferase reporter gene assay

Measured: Activity

Chain of Estrogen receptor beta (Homo sapiens) (Q92731 whole entry): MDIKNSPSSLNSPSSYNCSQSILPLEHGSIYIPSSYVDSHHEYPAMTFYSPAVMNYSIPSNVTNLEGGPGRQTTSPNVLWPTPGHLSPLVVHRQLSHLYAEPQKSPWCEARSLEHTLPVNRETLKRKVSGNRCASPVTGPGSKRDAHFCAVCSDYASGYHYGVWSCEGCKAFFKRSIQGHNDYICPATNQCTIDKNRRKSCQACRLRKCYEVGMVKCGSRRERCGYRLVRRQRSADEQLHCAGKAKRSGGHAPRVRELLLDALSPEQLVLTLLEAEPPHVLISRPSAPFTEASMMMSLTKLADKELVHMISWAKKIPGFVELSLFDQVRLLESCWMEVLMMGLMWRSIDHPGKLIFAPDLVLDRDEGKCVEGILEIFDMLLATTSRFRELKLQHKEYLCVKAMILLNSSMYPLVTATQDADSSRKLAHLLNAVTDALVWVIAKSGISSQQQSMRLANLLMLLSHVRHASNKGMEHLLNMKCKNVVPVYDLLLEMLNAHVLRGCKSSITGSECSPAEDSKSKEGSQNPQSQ

Nc1cc(F)ccc1NC(=O)c1ccc(CNC(=O)/C=C/c2cccnc2)cc1
active: [1] | [2] | [3] | [4] | [5] | [6] | [7] | [8]

CC(/C=C/C(=O)NO)=C\[C@@H](C)C(=O)c1ccc(N(C)C)cc1
active: [9] | [10] | [11] | [12] | [13] | [14] | [15] | [16]

Nc1ccccc1NC(=O)c1ccc(CNC(=O)OCc2cccnc2)cc1
active: [1] | [2] | [3] | [4] | [5] | [6] | [7] | [8]
